Molecules are shown by their SMILES. Calls of active or inactive are those of the source. Rule as the data show it: actives have a measured IC50 and inactives only a lower limit.

In the assay the target is Envelope glycoprotein gp160 (Human immunodeficiency virus 1, UniProt Q6QLK5). Nature of the assay: inhibitors of HIV fusion peptide binding, primary screen, biochemical, uHTS, fluorescence dequenching (AID 1986).
Envelope glycoprotein gp160, sequence (Q6QLK5 whole entry, the tested form may be a part): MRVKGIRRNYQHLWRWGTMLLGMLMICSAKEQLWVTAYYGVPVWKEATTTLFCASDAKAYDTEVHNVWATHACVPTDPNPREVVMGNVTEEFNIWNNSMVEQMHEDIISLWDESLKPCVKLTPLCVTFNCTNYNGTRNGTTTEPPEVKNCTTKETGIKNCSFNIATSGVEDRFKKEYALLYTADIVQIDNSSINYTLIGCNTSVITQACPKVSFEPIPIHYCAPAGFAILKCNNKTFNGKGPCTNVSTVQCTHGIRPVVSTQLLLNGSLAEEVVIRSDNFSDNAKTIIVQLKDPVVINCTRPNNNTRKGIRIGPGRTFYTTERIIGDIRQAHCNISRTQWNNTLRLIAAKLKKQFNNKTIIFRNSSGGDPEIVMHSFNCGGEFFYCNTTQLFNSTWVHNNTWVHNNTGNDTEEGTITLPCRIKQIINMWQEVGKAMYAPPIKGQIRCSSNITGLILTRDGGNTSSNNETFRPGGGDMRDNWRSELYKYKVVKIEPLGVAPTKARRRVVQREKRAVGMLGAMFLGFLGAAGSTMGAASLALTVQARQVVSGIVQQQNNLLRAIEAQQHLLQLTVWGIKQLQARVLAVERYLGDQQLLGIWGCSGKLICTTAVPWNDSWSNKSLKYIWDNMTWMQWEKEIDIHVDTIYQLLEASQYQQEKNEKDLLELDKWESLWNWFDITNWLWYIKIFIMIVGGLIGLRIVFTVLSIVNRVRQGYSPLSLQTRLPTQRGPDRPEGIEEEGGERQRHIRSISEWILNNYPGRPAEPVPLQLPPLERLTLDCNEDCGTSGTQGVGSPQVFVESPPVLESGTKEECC
As a reminder, the IC50 is the concentration at which inhibition is half-maximal. In the case of `O=C(NCCc1ccccc1)c1ccc2c(=O)[nH]c3c(C(=O)NCC4CCCO4)sc(=S)n3c2c1` (centres undefined), the IC50 was 27.8 µM (active).
In the case of `CCOc1cc(/C=C2\C(=O)N(c3cccc(C(=O)O)c3)N=C2C(F)(F)F)ccc1OCC(=O)Nc1ccccc1OC`, the IC50 is 3.88 µM (active).
Regarding `COc1ccc(-c2cc(-c3ccc(Cl)cc3)c(C#N)c(SCC(=O)O)n2)cc1`, the IC50 was 19.4 µM (active).
Take `O=C(O)c1ccc(/C=N/NC(=O)c2ccc(CN3c4cccc5cccc(c45)S3(=O)=O)cc2)cc1`: the IC50 is 19.7 µM (active).

Values taken from ChEMBL document CHEMBL1201862, “PubChem BioAssay data set” (2004).
